The values that follow come from patent publication US11111237B2, “Bicyclic compound and use thereof” (SK BIOPHARMACEUTICALS CO., LTD., priority 2019, dated 2021).

The structures appear in SMILES notation.

Chain of PRMT5-MEP50 enzyme complex (O14744 2-637): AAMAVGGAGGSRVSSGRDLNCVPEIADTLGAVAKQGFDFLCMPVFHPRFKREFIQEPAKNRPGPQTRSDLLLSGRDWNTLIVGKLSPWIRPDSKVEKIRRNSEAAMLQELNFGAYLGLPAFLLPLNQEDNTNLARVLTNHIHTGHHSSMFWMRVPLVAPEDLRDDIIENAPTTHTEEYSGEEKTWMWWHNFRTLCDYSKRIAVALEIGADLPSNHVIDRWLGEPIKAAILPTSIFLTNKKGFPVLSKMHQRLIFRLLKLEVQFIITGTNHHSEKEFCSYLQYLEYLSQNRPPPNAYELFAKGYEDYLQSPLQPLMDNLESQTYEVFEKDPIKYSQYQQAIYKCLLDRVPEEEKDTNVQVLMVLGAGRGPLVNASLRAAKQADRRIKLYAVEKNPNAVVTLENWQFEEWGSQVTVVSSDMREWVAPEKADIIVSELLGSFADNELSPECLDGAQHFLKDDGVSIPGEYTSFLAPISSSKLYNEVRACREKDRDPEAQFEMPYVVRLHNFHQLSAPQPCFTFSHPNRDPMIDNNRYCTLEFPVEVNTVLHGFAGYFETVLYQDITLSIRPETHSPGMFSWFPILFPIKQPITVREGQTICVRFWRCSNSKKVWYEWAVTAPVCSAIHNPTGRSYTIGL
Chain of PRMT5-MEP50 enzyme complex (Q9BQA1 2-342 partner): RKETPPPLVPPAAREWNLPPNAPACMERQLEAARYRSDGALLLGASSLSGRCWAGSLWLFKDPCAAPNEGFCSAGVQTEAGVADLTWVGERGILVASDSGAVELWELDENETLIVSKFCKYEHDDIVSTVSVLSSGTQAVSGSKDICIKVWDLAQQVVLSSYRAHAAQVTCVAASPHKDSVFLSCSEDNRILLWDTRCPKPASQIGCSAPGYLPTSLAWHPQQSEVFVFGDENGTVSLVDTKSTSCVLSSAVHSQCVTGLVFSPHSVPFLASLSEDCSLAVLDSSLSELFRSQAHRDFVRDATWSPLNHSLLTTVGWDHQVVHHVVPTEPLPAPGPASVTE

This test addresses PRMT5-MEP50 enzyme complex (Homo sapiens (Human), UniProt O14744). Put plainly: PRMT5 enzyme activity in vitro assay (methylation of histone H4R3, ELISA absorbance at 450 nm). The class given is biochemical. Particulars: SAM, histone H4 peptide, room temperature 2 hours, 8 points from 10 μM to 0.128 nM. An outline of the steps:
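Human PRMT5-MEP50 was prepared at 5 μg/mL with SAM at 2 μM and reacted 2 h at room temperature on plate-coated histone H4 (1-20) peptide. An 8-point 1:5 compound series ran from 10 μM to 0.128 nM. H4R3 methylation was detected by antibody/HRP ELISA at 450 nm to give IC50.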
In general terms: ELISA stands for enzyme-linked immunosorbent assay.
The IC50 is the concentration that gives 50% inhibition. In the case of `CC(=O)N1CCCC(Oc2ccc3c(c2)OCCN(C[C@H](O)CN2CCc4ccccc4C2)C3=O)C1` (stereo partly drawn) [Example 79, 8-[(1-acetyl-3-piperidyl)oxy]-4-[(2R)-3-(3,4-dihydro-1H-isoquinolin-2-yl)-2-hydroxy-propyl]-2,3-dihydro-1,4-benzoxazepin-5-one], the IC50 lay within 100 to 1000 nM.

As to `CC(=O)N1CCC(Oc2ccc3c(c2)OCCN(C[C@H](O)CN2CCc4ccccc4C2)C3=O)C1` (stereo partly drawn) [Example 80, 8-(1-acetylpyrrolidin-3-yl)oxy-4-[(2R)-3-(3,4-dihydro-1H-isoquinolin-2-yl)-2-hydroxy-propyl]-2,3-dihydro-1,4-benzoxazepin-5-one], the IC50 was in the range of 100 to 1000 nM. Under `CC(=O)N1CC[C@@H](Oc2ccc3c(c2)OCCN(C[C@H](O)CN2CCc4ccccc4C2)C3=O)C1` [Example 81, 8-[(3R)-1-acetylpyrrolidin-3-yl]oxy-4-[(2R)-3-(3,4-dihydro-1H-isoquinolin-2-yl)-2-hydroxy-propyl]-2,3-dihydro-1,4-benzoxazepin-5-one] stands 1 to 100 nM; under `CC(=O)N1CC[C@H](Oc2ccc3c(c2)OCCN(C[C@H](O)CN2CCc4ccccc4C2)C3=O)C1` [Example 82, 8-[(3S)-1-acetylpyrrolidin-3-yl]oxy-4-[(2R)-3-(3,4-dihydro-1H-isoquinolin-2-yl)-2-hydroxy-propyl]-2,3-dihydro-1,4-benzoxazepin-5-one], 100 to 1000 nM; under `CC(=O)N1CC(Oc2ccc3c(c2)OCCN(C[C@H](O)CN2CCc4ccccc4C2)C3=O)C1` [Example 83, 8-(1-acetylazetidin-3-yl)oxy-4-[(2R)-3-(3,4-dihydro-1H-isoquinolin-2-yl)-2-hydroxy-propyl]-2,3-dihydro-1,4-benzoxazepin-5-one], 100 to 1000 nM. With `CCC(=O)N1CC(Oc2ccc3c(c2)OCCN(C[C@H](O)CN2CCc4ccccc4C2)C3=O)C1` [Example 84, 4-[(2R)-3-(3,4-dihydro-1H-isoquinolin-2-yl)-2-hydroxy-propyl]-8-(1-propanoylazetidin-3-yl)oxy-2,3-dihydro-1,4-benzoxazepin-5-one] the figure was 100 to 1000 nM; with `O=C1c2ccc(OC3CN(C(=O)C4CC4)C3)cc2OCCN1C[C@H](O)CN1CCc2ccccc2C1` [Example 85, 8-[1-(cyclopropanecarbonyl)azetidin-3-yl]oxy-4-[(2R)-3-(3,4-dihydro-1H-isoquinolin-2-yl)-2-hydroxy-propyl]-2,3-dihydro-1,4-benzoxazepin-5-one], 1 to 100 nM; with `COC(=O)N1CC(Oc2ccc3c(c2)OCCN(C[C@H](O)CN2CCc4ccccc4C2)C3=O)C1` [Example 86, methyl 3-[[4-[(2R)-3-(3,4-dihydro-1H-isoquinolin-2-yl)-2-hydroxy-propyl]-5-oxo-2,3-dihydro-1,4-benzoxazepin-8-yl]oxy]azetidin-1-carboxylate], 100 to 1000 nM. Under `CC(C)N1CCC(Oc2ccc3c(c2)OCCN(C[C@H](O)CN2CCc4ccccc4C2)C3=O)CC1` [Example 89, 4-[(2R)-3-(3,4-dihydro-1H-isoquinolin-2-yl)-2-hydroxy-propyl]-8-[(1-isopropyl-4-piperidyl)oxy]-2,3-dihydro-1,4-benzoxazepin-5-one] stands 1 to 100 nM; under `O=C1c2ccc(OC3CCN(C4CC4)CC3)cc2OCCN1C[C@H](O)CN1CCc2ccccc2C1` [Example 90, 8-[(1-cyclopropyl-4-piperidyl)oxy]-4-[(2R)-3-(3,4-dihydro-1H-isoquinolin-2-yl)-2-hydroxy-propyl]-2,3-dihydro-1,4-benzoxazepin-5-one], 1 to 100 nM. On to `O=C1c2ccc(OC3CCN(C4CCC4)CC3)cc2OCCN1C[C@H](O)CN1CCc2ccccc2C1` [Example 91, 8-[(1-cyclobutyl-4-piperidyl)oxy]-4-[(2R)-3-(3,4-dihydro-1H-isoquinolin-2-yl)-2-hydroxy-propyl]-2,3-dihydro-1,4-benzoxazepin-5-one], for which the IC50 lay in the range of 100 to 1000 nM. Under `CN1CC(Oc2ccc3c(c2)OCCN(C[C@H](O)CN2CCc4ccccc4C2)C3=O)C1` [Example 93, 4-[(2R)-3-(3,4-dihydro-1H-isoquinolin-2-yl)-2-hydroxy-propyl]-8-(1-methylazetidin-3-yl)oxy-2,3-dihydro-1,4-benzoxazepin-5-one] stands 100 to 1000 nM; under `CCN1CC(Oc2ccc3c(c2)OCCN(C[C@H](O)CN2CCc4ccccc4C2)C3=O)C1` [Example 94, 4-[(2R)-3-(3,4-dihydro-1H-isoquinolin-2-yl)-2-hydroxy-propyl]-8-(1-ethylazetidin-3-yl)oxy-2,3-dihydro-1,4-benzoxazepin-5-one], 100 to 1000 nM; under `CC(C)N1CC(Oc2ccc3c(c2)OCCN(C[C@H](O)CN2CCc4ccccc4C2)C3=O)C1` [Example 95, 4-[(2R)-3-(3,4-dihydro-1H-isoquinolin-2-yl)-2-hydroxy-propyl]-8-(1-isopropylazetidin-3-yl)oxy-2,3-dihydro-1,4-benzoxazepin-5-one], 100 to 1000 nM. The compound `O=C1c2ccc(OC3CN(C4COC4)C3)cc2OCCN1C[C@H](O)CN1CCc2ccccc2C1` [Example 96, 4-[(2R)-3-(3,4-dihydro-1H-isoquinolin-2-yl)-2-hydroxy-propyl]-8-[1-(oxetan-3-ylyl)azetidin-3-yl]oxy-2,3-dihydro-1,4-benzoxazepin-5-one] showed a concentration for half-maximal inhibition (IC50) of 100 to 1000 nM. On to `CCN1CC(COc2ccc3c(c2)OCCN(C[C@H](O)CN2CCc4ccccc4C2)C3=O)C1` [Example 97, 4-[(2R)-3-(3,4-dihydro-1H-isoquinolin-2-yl)-2-hydroxy-propyl]-8-[(1-ethylazetidin-3-yl)methoxy]-2,3-dihydro-1,4-benzoxazepin-5-one], for which the half-inhibitory concentration (IC50) is 100 to 1000 nM. Under `CN1CCC(Oc2ccc3c(c2)OCCN(C[C@H](O)CN2CCc4ccccc4C2)C3=O)C1` (stereo partly drawn) [Example 98, 4-[(2R)-3-(3,4-dihydro-1H-isoquinolin-2-yl)-2-hydroxy-propyl]-8-(1-methylpyrrolidin-3-yl)oxy-2,3-dihydro-1,4-benzoxazepin-5-one] stands 100 to 1000 nM; under `CCN1CC[C@@H](Oc2ccc3c(c2)OCCN(C[C@H](O)CN2CCc4ccccc4C2)C3=O)C1` [Example 99, 4-[(2R)-3-(3,4-dihydro-1H-isoquinolin-2-yl)-2-hydroxy-propyl]-8-[(3R)-1-ethylpyrrolidin-3-yl]oxy-2,3-dihydro-1,4-benzoxazepin-5-one], 100 to 1000 nM; under `CC(C)N1CCC[C@H]1COc1ccc2c(c1)OCCN(C[C@H](O)CN1CCc3ccccc3C1)C2=O` [Example 101, 4-[(2R)-3-(3,4-dihydro-1H-isoquinolin-2-yl)-2-hydroxy-propyl]-8-[[(2S)-1-isopropylpyrrolidin-2-yl]methoxy]-2,3-dihydro-1,4-benzoxazepin-5-one], 100 to 1000 nM. `CN1CCC(COc2ccc3c(c2)OCCN(C[C@H](O)CN2CCc4ccccc4C2)C3=O)CC1` [Example 102, 4-[(2R)-3-(3,4-dihydro-1H-isoquinolin-2-yl)-2-hydroxy-propyl]-8-[(1-methyl-4-piperidyl)methoxy]-2,3-dihydro-1,4-benzoxazepin-5-one] registered an IC50 of 100 to 1000 nM. Under `CCN1CCC(COc2ccc3c(c2)OCCN(C[C@H](O)CN2CCc4ccccc4C2)C3=O)CC1` [Example 103, 4-[(2R)-3-(3,4-dihydro-1H-isoquinolin-2-yl)-2-hydroxy-propyl]-8-[(1-ethyl-4-piperidyl)methoxy]-2,3-dihydro-1,4-benzoxazepin-5-one] stands 100 to 1000 nM. Compound `CN1CCOC(COc2ccc3c(c2)OCCN(C[C@H](O)CN2CCc4ccccc4C2)C3=O)C1` (stereo partly drawn) [Example 104, 4-[(2R)-3-(3,4-dihydro-1H-isoquinolin-2-yl)-2-hydroxy-propyl]-8-[(4-methylmorpholin-2-yl)methoxy]-2,3-dihydro-1,4-benzoxazepin-5-one] registered an IC50 of 100 to 1000 nM. With `CCN1CCOC(COc2ccc3c(c2)OCCN(C[C@H](O)CN2CCc4ccccc4C2)C3=O)C1` (stereo partly drawn) [Example 105, 4-[(2R)-3-(3,4-dihydro-1H-isoquinolin-2-yl)-2-hydroxy-propyl]-8-[(4-ethylmorpholin-2-yl)methoxy]-2,3-dihydro-1,4-benzoxazepin-5-one] the figure was 100 to 1000 nM. With `CN1CCC(COc2ccc3c(c2)OCCN(C[C@H](O)CN2CCc4ccccc4C2)C3=O)C1` (stereo partly drawn) [Example 106, 4-[(2R)-3-(3,4-dihydro-1H-isoquinolin-2-yl)-2-hydroxy-propyl]-8-[(1-methylpyrrolidin-3-yl)methoxy]-2,3-dihydro-1,4-benzoxazepin-5-one] the figure was 100 to 1000 nM; with `CN1CCCC(COc2ccc3c(c2)OCCN(C[C@H](O)CN2CCc4ccccc4C2)C3=O)C1` (stereo partly drawn) [Example 107, 4-[(2R)-3-(3,4-dihydro-1H-isoquinolin-2-yl)-2-hydroxy-propyl]-8-[(1-methyl-3-piperidyl)methoxy]-2,3-dihydro-1,4-benzoxazepin-5-one], 1 to 100 nM; with `O=C1c2c(F)cc(CN3CCOCC3)cc2OCCN1C[C@H](O)CN1CCc2ccccc2C1` [Example 108, 4-[(2R)-3-(3,4-dihydro-1H-isoquinolin-2-yl)-2-hydroxy-propyl]-6-fluoro-8-(morpholinomethyl)-2,3-dihydro-1,4-benzoxazepin-5-one], 1000 to 10000 nM. In turn, `CN1CCC(Oc2cc(F)c3c(c2)OCCN(C[C@H](O)CN2CCc4ccccc4C2)C3=O)CC1` [Example 109, 4-[(2R)-3-(3,4-dihydro-1H-isoquinolin-2-yl)-2-hydroxy-propyl]-6-fluoro-8-[(1-methyl-4-piperidyl)oxy]-2,3-dihydro-1,4-benzoxazepin-5-one] displayed an IC50 of 100 to 1000 nM. With `CCN1CCC(Oc2ccc3c(c2)OC(C)(C)CN(C[C@H](O)CN2CCc4ccccc4C2)C3=O)CC1` [Example 110, 4-[(2R)-3-(3,4-dihydro-1H-isoquinolin-2-yl)-2-hydroxy-propyl]-8-[(1-ethyl-4-piperidyl)oxy]-2,2-dimethyl-3H-1,4-benzoxazepin-5-one] the figure was 100 to 1000 nM.
